Literature values as cited in patent US20110200560A1, “NON-IONIC SELF-ASSEMBLING PEPTIDES AND USES THEREOF” (MASSACHUSETTS INSTITUTE OF TECHNOLOGY, priority 2009, published 2011).
Read-outs that look alike come from different tables or passages of the source.

Tests used:
[1] = system: human umbilical vein endothelial cells (HIVEC)
[2] = system: human umbilical vein endothelial cell (HUVEC); conditions: from RADA 16-I scaffold, without additional soluble growth factors

In the case of AASIKVAVSADR (Mammalian), the “activity of neurite extension by PC12 cells” value (PC12 cells) is given as “promoted activity of neurite extension”.

For “CSRARKQAASIKVAVSADR (Mammalian) [Laminin-1 peptide]”, the “degradation of Matrigel matrix by human umbilical vein endothelial cells” value [1] is listed as “induced degradation of Matrigel matrix”.

In the case of KAFDITYVRLKF (Mammalian), the HUVEC adhesion (HUVEC) is listed as “promoted”, the HUVEC tube formation (HUVEC) is listed as “promoted” and the neurite outgrowth (neuronal cell) is listed as “promoted”. For the same substance, the neuronal cell adhesion (neuronal cell) was “promoted”.

In the case of PDSGR (Mammalian), the cell adhesion (cell adhesion) is listed as “promoted cell adhesion”.

In the case of “RAD/KLT: RADA16 peptide scaffold containing motif from vascular endothelial growth factor (KLTWQELYQLKYKGI) (SEQ ID NO: 78) (Mammalian)”, the “HUVEC unidirectional migration in response to functional peptide scaffolds” value [2] is listed as “directionally migrated” and the “HUVEC unidirectional migration in response to functional peptide scaffolds” value ([2]; listed as KLT) is listed as “induced cell migration”.

In the case of “RAD/PRG: RADA16 peptide scaffold containing active motif with 2 units RGD motif (PRGDSGYRGDS) (SEQ ID NO: 77) (Mammalian)”, the “HUVEC unidirectional migration in response to functional peptide scaffolds” value [2] is listed as “directionally migrated” and the “HUVEC unidirectional migration in response to functional peptide scaffolds” value ([2]; listed as PRG) is listed as “induced cell migration”.

For RYVVLPR (Mammalian), the cell adhesion (cell adhesion) is given as “promoted cell adhesion”.

In the case of YIGSR (Mammalian), the cell adhesion (cell adhesion) is given as “promoted cell adhesion”.
